Common to all, as to experiment: MIC by micro broth dilution
Format in all cases: cell-based

The test system of assay [1] is S. epidermidis ATCC 35984. To be noted: for MIC: Staphylococcus epidermidis, ATCC35984, read-out: Minimum inhibitory concentration (MIC). As for the experimental part:
(§1) MIC of DART molecules were determined by micro broth dilution as per CLSI guidelines. Bacterial strains were cultured in Brain Heart Infusion Agar (BHIA) at 37° C. for 24 h. For MIC determination, BHI broth (100 μl) was added to each of the wells of a 96 well plate. 100 μl of broth containing drug was added to the first well (1A to 1H) and thereafter serial (double) dilutions were carried out for up to 10 wells (column 1 to column 10 of the 96 well plate). Bacterial inoculum was prepared by adjusting the bacterial culture turbidity to 0.5 McFarland standard (approximately 1.5×10^8 cells/ml) and further diluted (100 times with sterile BHI broth). Diluted bacterial suspension (100 μl) was added to each well except sterility control wells (column 12 of 96 well plate). The plates were incubated at 37° C. for 24 h. The MIC of the test compound was measured after addition of Alamar blue dye.

In another assay the test system is S. epidermidis S12-1. The conditions noted are these: for MIC: Staphylococcus epidermidis, S121, read-out: Minimum inhibitory concentration (MIC). As for the experimental part:
as §1

The next assay concerns E. faecium NCIM 5421. To be noted: for MIC: Enterococcus faecium, NCIM5421, read-out: Minimum inhibitory concentration (MIC). As for the experimental part: as §1
For the next assay, the system named is S. aureus CCARM 3505. To be noted: for MIC: Staphylococcus aureus, CCARM3505, read-out: Minimum inhibitory concentration (MIC). As for the experimental part: as §1
The subject of the next assay is S. aureus ATCC 43300. To be noted: S. aureus ATCC 43300; for MIC: Staphylococcus aureus, ATCC43300, read-out: Minimum inhibitory concentration (MIC). As for the experimental part:
as §1

Another assay relates to S. aureus MTCC 6908. To be noted: for MIC: Staphylococcus aureus, MTCC6908, read-out: Minimum inhibitory concentration (MIC). Here is the method: as §1

The structures appear in SMILES notation. Converted amounts (≈) assume the structure as drawn. Some results are limits rather than exact numbers.

Turning to `CCNC(=O)N1CCN(c2cc3c(cc2F)c(=O)c(C(=O)O)c2n3C(C)S2)CC1` (stereo not drawn) [Compound 48, 7-(4-(Ethylcarbamoyl)piperazin-1-yl)-6-fluoro-1-methyl-4-oxo-1H,4H-[1,3]thiazeto[3,2-a]quinoline-3-carboxylic acid], the MIC in assay [1] is 0.5 µg/mL (≈ 1.19 µM); with S. epidermidis S12-1, greater than 16 µg/mL; in the assay with E. faecium NCIM 5421, greater than 16 µg/mL; in the assay with S. aureus CCARM 3505 it was greater than 16 µg/mL; in the assay with S. aureus ATCC 43300 it was 1 µg/mL (≈ 2.38 µM); in the assay on S. aureus MTCC 6908, 2 µg/mL (≈ 4.76 µM).
`CC(=O)NC[C@H]1CN(c2ccc(N3CCN(C(=O)c4csc(N)n4)CC3)c(F)c2)C(=O)O1` [Compound 57, (S)—N-((3-(4-(4-(2-aminothiazole-4-carbonyl)piperazin-1-yl)-3-fluorophenyl)-2-oxooxazolidin-5-yl)methyl)acetamide]: the MIC was greater than 16 µg/mL in assay [1]; greater than 16 µg/mL in the assay with S. epidermidis S12-1; greater than 16 µg/mL with E. faecium NCIM 5421; greater than 16 µg/mL in the assay on S. aureus CCARM 3505; 16 µg/mL (≈ 34.6 µM) with S. aureus ATCC 43300; 8 µg/mL (≈ 17.3 µM) in the assay with S. aureus MTCC 6908.
For `CC(=O)NC[C@H]1CN(c2ccc(N3CCN(C(=O)c4csc(NC(=N)N)n4)CC3)c(F)c2)C(=O)O1` [Compound 58, (S)—N-((3-(3-fluoro-4-(4-(2-guanidinothiazole-4-carbonyl)piperazin-1-yl)phenyl)-2-oxooxazolidin-5-yl)methyl)acetamide], the MIC (in assay [1]; in the assay with S. epidermidis S12-1; with E. faecium NCIM 5421; in the assay on S. aureus CCARM 3505; in the assay on S. aureus ATCC 43300; in the assay with S. aureus MTCC 6908) was greater than 16 µg/mL each time.
`CC(=O)NC[C@H]1CN(c2ccc(N3CCN(Cc4nc5ccc([N+](=O)[O-])cc5[nH]4)CC3)c(F)c2)C(=O)O1` [Compound 65, (S)—N-((3-(3-Fluoro-4-(4-((6-nitro-1H-benzo[d]imidazol-2-yl)methyl)piperazin-1-yl)phenyl)-2-oxooxazolidin-5-yl)methyl)acetamide]: the MIC in assay [1] is 16 µg/mL (≈ 31.3 µM); in the assay with S. epidermidis S12-1 it was greater than 16 µg/mL; in the assay on E. faecium NCIM 5421, greater than 16 µg/mL; in the assay with S. aureus CCARM 3505, greater than 16 µg/mL; in the assay with S. aureus ATCC 43300 it was greater than 16 µg/mL; with S. aureus MTCC 6908, 16 µg/mL (≈ 31.3 µM).
Take `CC(=O)NC[C@H]1CN(c2ccc(N3CCN(Cc4nc5cc(Cl)c(Cl)cc5[nH]4)CC3)c(F)c2)C(=O)O1` [Compound 66, (S)—N-((3-(4-(4-((5,6-Dichloro-1H-benzo[d]imidazol-2-yl)methyl)piperazin-1-yl)-3-fluorophenyl)-2-oxooxazolidin-5-yl)methyl)acetamide]: the MIC in assay [1] was 8 µg/mL (≈ 14.9 µM); in the assay with S. epidermidis S12-1 it was greater than 16 µg/mL; in the assay with E. faecium NCIM 5421, greater than 16 µg/mL; with S. aureus CCARM 3505 it was greater than 16 µg/mL; in the assay with S. aureus MTCC 6908, 8 µg/mL (≈ 14.9 µM). For the same compound, in the assay on S. aureus ATCC 43300, the “Minimum inhibitory concentration (MIC)” value was 8/16.
As for `CC(=O)NC[C@H]1CN(c2ccc(N3CCN(CC(=O)Nc4ccc5nc(N)[nH]c5c4)CC3)c(F)c2)C(=O)O1` [Compound 68, (S)-2-(4-(4-(5-(acetamidomethyl)-2-oxooxazolidin-3-yl)-2-fluorophenyl)piperazin-1-yl)-N-(2-amino-1H-benzo[d]imidazol-6-yl)acetamide], the MIC in assay [1] was greater than 16 µg/mL; with S. epidermidis S12-1, greater than 16 µg/mL; in the assay on E. faecium NCIM 5421, greater than 16 µg/mL; in the assay on S. aureus CCARM 3505, greater than 16 µg/mL; in the assay with S. aureus ATCC 43300, greater than 64 µg/mL; with S. aureus MTCC 6908, 16 µg/mL (≈ 30.5 µM).
For `CC(=O)NC[C@H]1CN(c2ccc(N3CCN(C(=O)c4c[nH]c5ccc([N+](=O)[O-])cc45)CC3)c(F)c2)C(=O)O1` [Compound 75, (S)—N-((3-(3-fluoro-4-(4-(5-nitro-1H-indole-3-carbonyl)piperazin-1-yl)phenyl)-2-oxooxazolidin-5-yl)methyl)acetamide], the MIC was greater than 16 µg/mL in assay [1]; greater than 16 µg/mL in the assay on S. epidermidis S12-1; greater than 16 µg/mL with E. faecium NCIM 5421; greater than 16 µg/mL with S. aureus CCARM 3505; 16 µg/mL (≈ 30.5 µM) with S. aureus ATCC 43300; 4 µg/mL (≈ 7.63 µM) in the assay with S. aureus MTCC 6908.
Consider `CC(=O)NC[C@H]1CN(c2ccc(N3CCN(C(=O)c4cccc(Br)n4)CC3)c(F)c2)C(=O)O1` [Compound 76, (S)—N-((3-(4-(4-(6-Bromopicolinoyl)piperazin-1-yl)-3-fluorophenyl)-2-oxooxazolidin-5-yl)methyl)acetamide], for which the MIC in assay [1] was 2 µg/mL (≈ 3.84 µM); with S. epidermidis S12-1, 4 µg/mL (≈ 7.69 µM); in the assay on E. faecium NCIM 5421, greater than 16 µg/mL; in the assay with S. aureus CCARM 3505 it was 8 µg/mL (≈ 15.4 µM); in the assay with S. aureus ATCC 43300 it was 8 µg/mL (≈ 15.4 µM); with S. aureus MTCC 6908, 4 µg/mL (≈ 7.69 µM).
As for `CC(=O)NC[C@H]1CN(c2ccc(N3CCN(C(=O)c4ccccn4)CC3)c(F)c2)C(=O)O1` [Compound 77, (S)—N-((3-(3-fluoro-4-(4-picolinoylpiperazin-1-yl)phenyl)-2-oxooxazolidin-5-yl)methyl)acetamide], the MIC came out at 4 µg/mL (≈ 9.06 µM) in assay [1]; 4 µg/mL (≈ 9.06 µM) in the assay on S. epidermidis S12-1; 0.5 µg/mL (≈ 1.13 µM) in the assay with E. faecium NCIM 5421; 8 µg/mL (≈ 18.1 µM) in the assay with S. aureus CCARM 3505; 8 µg/mL (≈ 18.1 µM) in the assay with S. aureus ATCC 43300; 4 µg/mL (≈ 9.06 µM) with S. aureus MTCC 6908.
In the case of `CC(=O)NC[C@H]1CN(c2ccc(N3CCN(C(=O)c4cccc[n+]4[O-])CC3)c(F)c2)C(=O)O1` [Compound 78, (S)-2-(4-(4-(5-(acetamidomethyl)-2-oxooxazolidin-3-yl)-2-fluorophenyl)piperazine-1-carbonyl)-pyridine 1-oxide], the MIC was 8 µg/mL (≈ 17.5 µM) in assay [1]; 8 µg/mL (≈ 17.5 µM) in the assay with S. epidermidis S12-1; greater than 16 µg/mL in the assay with E. faecium NCIM 5421; greater than 16 µg/mL in the assay on S. aureus CCARM 3505; 16 µg/mL (≈ 35 µM) in the assay on S. aureus ATCC 43300; 8 µg/mL (≈ 17.5 µM) in the assay on S. aureus MTCC 6908.
As to `CC(=O)NC[C@H]1CN(c2ccc(N3CCN(C(=O)CNC(=O)c4cccc[n+]4[O-])CC3)c(F)c2)C(=O)N1` [Compound 80, (S)-2-((2-(4-(4-(4-(Acetamidomethyl)-2-oxoimidazolidin-1-yl)-2-fluorophenyl)piperazin-1-yl)-2-oxoethyl)carbamoyl)pyridine 1-oxide], the MIC in assay [1] was greater than 16 µg/mL; in the assay with S. epidermidis S12-1, greater than 16 µg/mL; with E. faecium NCIM 5421 it was greater than 16 µg/mL; with S. aureus CCARM 3505 it was greater than 16 µg/mL; with S. aureus ATCC 43300 it was 16 µg/mL (≈ 31.2 µM); in the assay on S. aureus MTCC 6908 it was 16 µg/mL (≈ 31.2 µM).
Take `CC(=O)NC[C@H]1CN(c2ccc(N3CCN(C(=O)NC(=N)N)CC3)c(F)c2)C(=O)O1` [Compound 84, (S)-4-(4-(5-(Acetamidomethyl)-2-oxooxazolidin-3-yl)-2-fluorophenyl)-N-carbamimidoylpiperazine-1-carboxamide]: the MIC in assay [1] was 16 µg/mL (≈ 38 µM); with S. epidermidis S12-1 it was 8 µg/mL (≈ 19 µM); with E. faecium NCIM 5421 it was greater than 16 µg/mL; in the assay on S. aureus CCARM 3505, greater than 16 µg/mL; in the assay on S. aureus ATCC 43300, greater than 16 µg/mL; with S. aureus MTCC 6908, greater than 16 µg/mL.
For the compound `CCCCCCCCCCC[CH2][SnH2][CH2][C@@H](NC(C)=O)C(=O)N1CCN(c2ccc(N3CC(CNC(C)=O)OC3=O)cc2F)CC1` (stereo partly drawn) [Compound 108, (S)—N-[2-(4-{4-[5-(Acetylamino-methyl)-2-oxo-oxazolidin-3-yl]-2-fluoro-phenyl}-piperazin-1-yl)-1-dodecylstannanylmethyl-2-oxo-ethyl]-acetamide], the “Minimum inhibitory concentration (MIC)” value (in assay [1]; in the assay with S. epidermidis S12-1; in the assay on E. faecium NCIM 5421; with S. aureus CCARM 3505; in the assay with S. aureus ATCC 43300; with S. aureus MTCC 6908) was greater than 16 µg/mL in each case.

For the origin of these results see patent publication US10570152B2, “Antibacterial therapeutics and prophylactics” (VYOME BIOSCIENCES PVT. LTD., priority 2015, dated 2020).
